According to the NIST ThermoML archive (doi:10.1016/j.jct.2007.03.012):

Assay: xn = mol fraction of the nth substance listed
Details: Liquid, Bellows volumetry

CC(C)C [2-methylpropane] + CCC
mass density [kg/m3]
Details | 280 K | 300 K | 320 K | 340 K | 360 K | 380 K | 400 K | 420 K | 440 K
1000 kPa, x2 = 0.2765 | 562.64 | – | 508.11 | – | – | – | – | – | –
1000 kPa, x2 = 0.5052 | 551.34 | 524.22 | – | – | – | – | – | – | –
1000 kPa, x2 = 0.7468 | 537.6 | – | – | – | – | – | – | – | –
2000 kPa, x2 = 0.2765 | 564.6 | – | 511.38 | – | – | – | – | – | –
2000 kPa, x2 = 0.5052 | 553.2 | 526.6 | 497.06 | 461.7 | – | – | – | – | –
2000 kPa, x2 = 0.7468 | 539.46 | – | 479.56 | – | – | – | – | – | –
3000 kPa, x2 = 0.2765 | 566.3 | – | 514.42 | – | 445.63 | – | – | – | –
3000 kPa, x2 = 0.5052 | 555.01 | 529.08 | 500.46 | 467.03 | 423.27 | – | – | – | –
3000 kPa, x2 = 0.7468 | 541.38 | – | 483.56 | – | – | – | – | – | –
5000 kPa, x2 = 0.2765 | 569.29 | – | 520.11 | – | 458.57 | – | 353.34 | – | –
5000 kPa, x2 = 0.5052 | 558.39 | 533.59 | 506.63 | 476.37 | 439.84 | 390.11 | – | – | –
5000 kPa, x2 = 0.7468 | 545.05 | – | 490.55 | – | 415.25 | – | – | – | –
10000 kPa, x2 = 0.2765 | 576.64 | – | 531.88 | – | 480.82 | – | 418.11 | – | –
10000 kPa, x2 = 0.5052 | 565.97 | 543.3 | 519.45 | 493.82 | 465.78 | 433.73 | 396.98 | 353.95 | –
10000 kPa, x2 = 0.7468 | 553.18 | – | 504.71 | – | 447.04 | – | 370.08 | – | –
20000 kPa, x2 = 0.2765 | 589.39 | – | 550.35 | – | 509.06 | – | 464.84 | – | 418.57
20000 kPa, x2 = 0.5052 | 579.24 | 559.15 | 538.88 | 518.13 | 496.7 | 473.66 | 450.18 | 426.22 | 401.72
20000 kPa, x2 = 0.7468 | 566.92 | – | 525.65 | – | 481.36 | – | 432.58 | – | 381.56
30000 kPa, x2 = 0.2765 | 600.09 | – | 564.57 | – | 528.67 | – | 491.48 | – | 455.11
30000 kPa, x2 = 0.5052 | 590.28 | 572.02 | 553.95 | 535.68 | 517.29 | 498.04 | 478.86 | 459.76 | 441.26
30000 kPa, x2 = 0.7468 | 578.25 | – | 541.33 | – | 503.41 | – | 463.78 | – | 424.79
40000 kPa, x2 = 0.2765 | 609.41 | – | 576.53 | – | 543.99 | – | 510.96 | – | 479.61
40000 kPa, x2 = 0.5052 | 599.56 | 582.88 | 566.43 | 549.83 | 533.27 | 516.11 | 499.19 | 482.81 | 467.04
40000 kPa, x2 = 0.7468 | 588.02 | – | 553.96 | – | 520.23 | – | 485.32 | – | 452.26
50000 kPa, x2 = 0.2765 | 617.7 | – | 586.9 | – | 556.8 | – | 526.54 | – | 498.3
50000 kPa, x2 = 0.5052 | 608.07 | 592.36 | 576.96 | 561.5 | 546.45 | 530.72 | 515.41 | 500.59 | 486.62
50000 kPa, x2 = 0.7468 | 596.76 | – | 564.8 | – | 534.15 | – | 502.4 | – | 472.75
60000 kPa, x2 = 0.2765 | 625.03 | – | 595.84 | – | 567.78 | – | 539.61 | – | 513.76
60000 kPa, x2 = 0.5052 | 615.65 | 600.74 | 586.25 | 571.92 | 557.79 | 543.03 | 528.8 | 515.22 | 502.39
60000 kPa, x2 = 0.7468 | 604.59 | – | 574.56 | – | 545.73 | – | 516.38 | – | 489.17
70000 kPa, x2 = 0.2765 | 632.03 | – | 604.2 | – | 577.53 | – | 550.88 | – | 526.7
70000 kPa, x2 = 0.5052 | 622.58 | 608.66 | 594.64 | 581.17 | 567.64 | 553.8 | 540.38 | 527.71 | 515.83
70000 kPa, x2 = 0.7468 | 611.65 | – | 583.04 | – | 555.96 | – | 528.32 | – | 503.08
80000 kPa, x2 = 0.2765 | 638.32 | – | 611.65 | – | 586.26 | – | 560.85 | – | 538.18
80000 kPa, x2 = 0.5052 | 629.12 | 615.58 | 602.37 | 589.45 | 576.76 | 563.25 | 550.76 | 538.65 | 527.49
80000 kPa, x2 = 0.7468 | 618.29 | – | 590.88 | – | 565.01 | – | 538.83 | – | 515.14
90000 kPa, x2 = 0.2765 | 644.2 | – | 618.46 | – | 594.28 | – | 570.04 | – | 548.29
90000 kPa, x2 = 0.5052 | 635.05 | 622.2 | 609.27 | 597.11 | 584.67 | 572.07 | 559.81 | 548.42 | 537.76
90000 kPa, x2 = 0.7468 | 624.34 | – | 598.03 | – | 573.12 | – | 548.28 | – | 525.87
100000 kPa, x2 = 0.2765 | 649.78 | – | 625.01 | – | 601.6 | – | 578.09 | – | 557.44
100000 kPa, x2 = 0.5052 | 640.63 | 628.29 | 615.79 | 603.84 | 592.18 | 579.89 | 568.28 | 557.24 | 547.21
100000 kPa, x2 = 0.7468 | 629.98 | – | 604.67 | – | 580.81 | – | 557.19 | – | 535.38
120000 kPa, x2 = 0.2765 | 659.95 | – | 636.48 | – | 614.72 | – | 592.86 | – | 573.52
120000 kPa, x2 = 0.5052 | 650.88 | 639.23 | 627.71 | 616.54 | 605.4 | 593.88 | 583.05 | 572.89 | 563.63
120000 kPa, x2 = 0.7468 | 640.58 | – | 616.69 | – | 594.3 | – | 571.88 | – | 552.06
140000 kPa, x2 = 0.2765 | 669.13 | – | 647 | – | 626.08 | – | 605.66 | – | 587.48
140000 kPa, x2 = 0.5052 | 660.2 | 649.29 | 638.12 | 627.45 | 617.13 | 606.29 | 595.97 | 586.39 | 577.64
140000 kPa, x2 = 0.7468 | 649.88 | – | 627.42 | – | 606.32 | – | 584.98 | – | 566.38
160000 kPa, x2 = 0.2765 | 677.73 | – | 656.27 | – | 636.59 | – | 616.77 | – | 599.81
160000 kPa, x2 = 0.5052 | 668.68 | 658.13 | 647.73 | 637.64 | 627.68 | 617.17 | 607.43 | 598.41 | 590.03
160000 kPa, x2 = 0.7468 | 658.46 | – | 636.99 | – | 616.85 | – | 596.72 | – | 579.07
180000 kPa, x2 = 0.2765 | 685.38 | – | 665.05 | – | 645.76 | – | 626.93 | – | 610.74
180000 kPa, x2 = 0.5052 | 676.44 | 666.5 | 656.41 | 646.63 | 637.18 | 627.17 | 617.7 | 609.2 | 601.17
180000 kPa, x2 = 0.7468 | 666.22 | – | 645.7 | – | 626.62 | – | 606.99 | – | 590.35
200000 kPa, x2 = 0.2765 | 692.5 | – | 673 | – | 654.56 | – | 636.12 | – | 620.79
200000 kPa, x2 = 0.5052 | 683.68 | 674.16 | 664.56 | 655.11 | 645.89 | 636.19 | 627.01 | 619.16 | 611.27
200000 kPa, x2 = 0.7468 | 673.88 | – | 653.87 | – | 635.27 | – | 616.65 | – | 600.48
